Molecules are shown by their SMILES. In brackets after ≈: the same amount, converted by molar mass.

Some test systems named below: Escherichia coli 804; Staphylococcus aureus 75; Escherichia coli 780; Escherichia coli BW25113.
Test in all cases: ≥ marks a high value that may be exact or a test limit, other limits are often not marked, values filed in µg/mL are converted to µM
In experiment [1] the test system is Klebsiella pneumoniae ATCC 700603.
In experiment [2] the test system is Pseudomonas aeruginosa ATCC 27853.
Experiment [3] concerns Pseudomonas aeruginosa ATCC 9027.
Experiment [4] has as its system Acinetobacter baumannii 97830.
Experiment [5] concerns Pseudomonas aeruginosa 50.
Experiment [6] has as its system Bacillus subtilis ATCC 23857.
The test system of experiment [7] is Acinetobacter baumannii 9931.
In experiment [8] the test system is Acinetobacter baumannii ATCC 19606.
Experiment [9] deals with Pseudomonas aeruginosa 73.
For experiment [10], the system named is Staphylococcus epidermidis ATCC 12228.
Experiment [11] relates to Staphylococcus aureus ATCC 29213.
Experiment [12] deals with Staphylococcus aureus 113.
Experiment [13] relates to Zymomonas mobilis ATCC 10988.
Experiment [14] concerns Escherichia coli DH5alpha.
Experiment [15] relates to Staphylococcus aureus ATCC 25923.
In experiment [16] the test system is Escherichia coli ATCC 25922.
For experiment [17], the system named is Escherichia coli BW25113 ΔsbmA.
The subject of experiment [18] is Escherichia coli ATCC 25922(ImiR).
In experiment [19] the test system is Escherichia coli ATCC 25922(RifR).
Experiment [20] deals with Pseudomonas aeruginosa ATCC 27853(ImiR).
The test system of experiment [21] is Klebsiella pneumoniae ATCC 700603(ImiR).
In experiment [22] the test system is Acinetobacter baumannii ATCC 19606(CipR).
Experiment [23] has as its system Klebsiella pneumoniae ATCC 700603(RifR).
The test system of experiment [24] is Pseudomonas aeruginosa ATCC 27853(RifR).
For experiment [25], the system named is Pseudomonas aeruginosa ATCC 27853(CipR).
Experiment [26] has as its system Klebsiella pneumoniae ATCC 700603(GenR).
Experiment [27] deals with Acinetobacter baumannii ATCC 19606(RifR).
Experiment [28] has as its system Escherichia coli ATCC 25922(CipR).
Experiment [29] has as its system Klebsiella pneumoniae ATCC 700603(CipR).
The subject of experiment [30] is Pseudomonas aeruginosa ATCC 27853(GenR).
The subject of experiment [31] is Escherichia coli ATCC 25922(GenR).
The test system of experiment [32] is Acinetobacter baumannii ATCC 19606(GenR).
Experiment [33] deals with Acinetobacter baumannii ATCC 19606(ImiR).

By MIC is commonly meant the lowest concentration found to suppress growth. Low readings indicate inhibition by little substance, high ones a need for much substance. In the case of `C[C@H](N)C(=O)N[C@@H](CCCN=C(N)N)C(=O)N[C@@H](CCCN=C(N)N)C(=O)N[C@@H](Cc1c[nH]c2ccccc12)C(=O)N[C@@H](Cc1c[nH]c2ccccc12)C(=O)N[C@@H](Cc1c[nH]c2ccccc12)C(=O)N[C@@H](CCCN=C(N)N)C(=O)N[C@@H](CCCN=C(N)N)C(=O)N[C@@H](C)C(N)=O` [ARRWWWRRA], the minimum inhibitory concentration (MIC) against Escherichia coli 804 is not below 64 µM; in [1], more than 128 µM; in [2], 128 µM (≈ 172 µg/mL); in [3], 128 µM (≈ 172 µg/mL); with Staphylococcus aureus 75 it was 16 µM (≈ 21.5 µg/mL); in experiment [4], not below 128 µM. Moreover, the MIC is not below 128 µM in experiment [5]; 8 µM (≈ 10.7 µg/mL) in experiment [6]; not below 64 µM in experiment [7]; 128 µM (≈ 172 µg/mL) in [8]; not below 128 µM in experiment [9]; not below 32 µM against Escherichia coli 780. For the same compound, the figures for the MIC in experiment [10], in experiment [11] and in [12] were 8 µM (≈ 10.7 µg/mL), 32 µM (≈ 43 µg/mL) and 16 µM (≈ 21.5 µg/mL), respectively.
As for `CC[C@H](C)[C@H](NC(=O)[C@H](CCCN=C(N)N)NC(=O)[C@H](CCC(N)=O)NC(=O)[C@@H](NC(=O)[C@@H](NC(=O)[C@H](CCCN=C(N)N)NC(=O)[C@H](CCCCN)NC(=O)[C@@H](N)CC(C)C)[C@@H](C)CC)C(C)C)C(=O)N[C@@H](CCCCN)C(=O)N[C@@H](CC(=O)O)C(=O)N[C@@H](Cc1ccccc1)C(=O)N[C@@H](CC(C)C)C(=O)N[C@@H](CCCN=C(N)N)C(N)=O` [LKRIVQRIKDFLR], the MIC in experiment [13] and in [14] was not below 119 µM in each case.
In the case of `CC[C@H](C)[C@H](NC(=O)[C@H](CCCN=C(N)N)NC(=O)[C@@H](N)Cc1c[nH]c2ccccc12)C(=O)N[C@@H](CCCN=C(N)N)C(=O)N1CCC[C@H]1C(=O)N[C@@H](CCCN=C(N)N)C(=O)N1CCC[C@H]1C(=O)N1CCC[C@H]1C(=O)N[C@@H](CCCN=C(N)N)C(=O)N[C@@H](CC(C)C)C(=O)N1CCC[C@H]1C(=O)N[C@@H](CCCN=C(N)N)C(=O)N1CCC[C@H]1C(=O)N[C@@H](CCCN=C(N)N)C(=O)N1CCC[C@H]1C(=O)N[C@@H](CCCN=C(N)N)C(=O)O` [WRIRPRPPRLPRPRPR], the minimum inhibitory concentration (MIC) is more than 64 µM in [15]; 1 µM (≈ 2.11 µg/mL) in experiment [16]; 16 µM (≈ 33.7 µg/mL) in experiment [1]; more than 64 µM in experiment [2]; 1 µM (≈ 2.11 µg/mL) against Escherichia coli BW25113; 32 µM (≈ 67.4 µg/mL) in experiment [8]. In experiment [17], this compound registered an MIC of 12 µM (≈ 25.3 µg/mL).
Consider `NCCCC[C@H](NC(=O)[C@H](CCCN=C(N)N)NC(=O)[C@H](Cc1c[nH]c2ccccc12)NC(=O)[C@H](CCCCN)NC(=O)[C@H](CCCN=C(N)N)NC(=O)[C@H](Cc1c[nH]c2ccccc12)NC(=O)[C@H](CCCCN)NC(=O)[C@H](CCCN=C(N)N)NC(=O)[C@H](Cc1c[nH]c2ccccc12)NC(=O)[C@H](CCCCN)NC(=O)[C@H](CCCN=C(N)N)NC(=O)[C@@H](N)Cc1c[nH]c2ccccc12)C(N)=O` [WRKWRKWRKWRK], for which the MIC in experiment [18] stood at 16 µM (≈ 30.4 µg/mL); in experiment [19], 16 µM (≈ 30.4 µg/mL); in experiment [20], 8 µM (≈ 15.2 µg/mL); in experiment [21], 16 µM (≈ 30.4 µg/mL); in experiment [22], 16 µM (≈ 30.4 µg/mL); in [23] it was 16 µM (≈ 30.4 µg/mL). Moreover, the MIC is 16 µM (≈ 30.4 µg/mL) against Escherichia coli 804; 16 µM (≈ 30.4 µg/mL) in experiment [1]; 4 µM (≈ 7.6 µg/mL) in experiment [2]; 4 µM (≈ 7.6 µg/mL) in experiment [3]; 4 µM (≈ 7.6 µg/mL) with Staphylococcus aureus 75; 4 µM (≈ 7.6 µg/mL) in experiment [5]. For the same compound, the MIC in experiment [6] was 2 µM (≈ 3.8 µg/mL); in [7] it was 8 µM (≈ 15.2 µg/mL); in experiment [24], 4 µM (≈ 7.6 µg/mL); in [25], 4 µM (≈ 7.6 µg/mL); in experiment [26] it was not below 32 µM; in experiment [8], 8 µM (≈ 15.2 µg/mL). Also, the MIC in experiment [27] was 8 µM (≈ 15.2 µg/mL); in the experiment with Escherichia coli 780, 8 µM (≈ 15.2 µg/mL); in [28], 8 µM (≈ 15.2 µg/mL); in experiment [29] it was not below 32 µM; in experiment [10] it was 4 µM (≈ 7.6 µg/mL); in experiment [30], not below 32 µM. In addition, the MIC amounted to 8 µM (≈ 15.2 µg/mL) in experiment [31]; 16 µM (≈ 30.4 µg/mL) in [32]; 4 µM (≈ 7.6 µg/mL) in experiment [11]; 16 µM (≈ 30.4 µg/mL) in [33]; 2 µM (≈ 3.8 µg/mL) in experiment [12].
